What was measured:
[1] = tested on: Desulfovibrio vulgaris (ATCC 29579); experiment: Activity against sulfate reducing bacteria (3-tube most probable number method); format: cell-based; conditions: 10 ppm (copper or gluteraldehyde); one hour; start 2×10^7 mpn/ml; SRB2 media
[2] = room temperature; cited from earlier work

SMILES	log10 reduction of D. vulgaris [1]	Water solubility [2] [mg/mL]
[Cl][Cu][Cl] [CuCl2, copper (II) chloride]	less than 3 log10	–
O=CCCCC=O [gluteraldehyde]	greater than 4.23 log10	–
[Cl-].[Cl-].[Zn+2] [ZnCl2, zinc chloride]	–	4300
[Cu][Br] [CuBr, Copper(I) bromide]	–	0.011

— patent US11352551B2, “Proppant coatings containing antimicrobial agents” (Agienic, Inc., priority 2012, dated 2022)
